The text below walks through data of patent US6846842B2, “Pyruvate ester composition and method of use for resuscitation after events of ischemia and reperfusion” (Beth Israel Deconess Medical Center, Inc., priority 1999, dated 2005).

Data set [1] in a line: Stability and enolization of pyruvate esters in Ringer's solution (NMR, ultraviolet absorption). In kind it is physicochemical. The note with it: for absorbance: 28 mM solution, 300-340 nm; for average absorption, corrected for blanks: 1 mMolar solution, 230-260 nm. As to the method: Specifically, the preferred embodiment of this “pyruvated” Ringer's solution for use in NMR, stability, and subsequent biological studies is shown in Table 2.
Following the procedural recommendations for analysis of Margolis et al. (1986) with respect to scanning times and frequencies on a 400 MHz spectrometer operating in pulse. […] The ultraviolet absorptions of these solutions were also measured periodically over the 230-260 nm range and 300-340 nm span, where changes in enol formation become evident, and provided confirmatory evidence about the distinctly different salvation properties of pyruvate ester analogs in comparison to pyruvate salts applied in the various methods of prior art.
The experimental sequence in which to establish the greater utility of the pyruvate derivatives in this invention follows along the same lines as the comparative spectral experiments just described.
When 28 mM solutions were examined in a similar manner at 300-340 nm, the absorbance of pyruvate remained unchanged before and after calcium addition at a value of 0.03, while the ethyl pyruvate solutions become noticeably straw colored to the naked eye, rising in absorbance from 0.07 to 0.85. The yellow coloration and increases in spectrophotometric absorption in the ultraviolet region confirms the formation of a 1,3-conjugated ketone system, as would result from the enolization of ethylpyruvate under conditions which appear not to enolize pyruvic acid.

The subject of data set [2] is ischemia/reperfusion mucosal injury, small intestine. Nature of the data set: Rat model of superior mesenteric artery occlusion (ischemia/reperfusion mucosal injury and barrier dysfunction). Format: in vivo, male Sprague-Dawley rats. The settings on record: for mucosal thickness (MT) / villous height (VH): 28 mM infusate, mean ± SEM, n=6; for mucosal permeability (FITC-dextran, everted gut sac): during reperfusion. As to the method: The model system and calculation parameters are illustrated in FIG. 3.
Heart rate and mean arterial blood pressure were measured via a right carotid arterial catheter. The left internal jugular vein was cannulated for intravenous infusions.
Controls (n=6) received lactated Ringer's solution (lactate, […], 111.5 ml/kg/hr infusion, 1.5 ml/kg bolus prior to ischemia, and a 3.0 ml/kg bolus prior to reperfusion). Experimental groups (n=6 each) received similar volumes (3 ml) of either pyruvate, Na salt (28 mM) or pyruvate ethyl ester (28 mM), prepared in accordance with the method of this invention as shown in Table 2 and at a dosage rate equivalent to 10 mg/kg/hr. Small intestinal mucosal-to-serosal permeability (CMS, nl/min/cm^2) of FITC- dextran (mw=4 kDA) was evaluated using an everted gut sac technique as previously described by Wattanasirichaigoon (1999). Permeability was measured at baseline, after 30 and 60 minutes of ischemia ([…]) respectively, and after 30 and 60 minutes of reperfusion (R30 and R60, respectively). Histologic samples at baseline, 160 and R60 were evaluated for villous height (VH, μ) and mucosal thickness (MT, μ). Mucosal injury grade was determined according to the method described by Chiu et al. (1970), scored as in Table 3, as follows:
Data were summarized as means±standard error of the mean. Significances of differences were determined using Student's t-test. Differences were considered significant for p<0.05.

The conditions of data set [3]: concentrations of 1 Mol/liter or less, standing for 48 hrs; cited from earlier work.
[4] abbreviates: I60 (after 60 minutes of ischemia).
The mark [5] stands for this setting: R60 (after 60 minutes of reperfusion).

In the case of `CCOC(=O)C(C)=O` [Ethyl pyruvate (4), ethyl pyruvate], the absorbance in data set [1] (after calcium addition) was found to be 0.85; in data set [1] (before calcium addition) it was 0.07. Moreover, the “average absorption, corrected for blanks” value in data set [1] (absence of calcium, pH 7.2) amounted to 0.2; in data set [1] (after addition of calcium), 0.41. Also, the “stability of aqueous solution” value in data set [1] (in the presence of calcium salts (Ringer's solution)) is “more stable aqueous solution than sodium pyruvate”. For the same compound, the “mucosal thickness (MT)” value in data set [2] (Baseline) turned out to be 583 μ; in data set [2] (setting [4]), 466 μ; in data set [2] (setting [5]), 352 μ. Moreover, the “villous height (VH)” value in data set [2] (Baseline) stood at 486 ± 12 μ; in data set [2] (setting [4]), 381 ± 24 μ; in data set [2] (setting [5]), 296 ± 26 μ. In addition, the mucosal injury score entry in data set [2] (Chiu grade 0-5 (Table 3), FIG. 5) is “significant diminution”. Moreover, the “cytoprotection as judged by the extent of permeability increase” value in data set [2] (FIG. 4) was “significant trend towards effecting earlier and greater cytoprotection”. For the same compound, the “villous height and mucosal thickness” value in data set [2] (during both ischemia and reperfusion, p<0.01) is “significantly maintained”. The “mucosal permeability (FITC-dextran, everted gut sac)” value in data set [2] (FIG. 4) is “significantly decreased”.
Consider `CC(=O)C(=O)O` [pyruvic acid, reference compound], for which, in data set [1] (absence of calcium, pH 7.2), the “average absorption, corrected for blanks” value is on record as 0.15.
In the case of Lactate [reference compound], the “mucosal thickness (MT)” value in data set [2] (Baseline) is on record as 553 ± 34 μ; in data set [2] (setting [4]), 298 ± 32 μ; in data set [2] (setting [5]), 141 ± 22 μ. Moreover, the “villous height (VH)” value is reported as 470 ± 30 μ in data set [2] (Baseline), 244 ± 20 μ in data set [2] (setting [4]) and 130 ± 25 μ in data set [2] (setting [5]).
`CC(=O)C(=O)[O-].[Na+]` [Na Pyruvate (1), sodium pyruvate]: in data set [2] (FIG. 4), the “mucosal permeability (FITC-dextran, everted gut sac)” value was “significantly decreased”. For the same compound, in data set [3], the “dimer (4-hydroxy-4-methyl-2-ketoglutaric acid) formed” value was 20-25% and the hydrate formed is on record as 6-10%.
